PubChem BioAssay (NCI)
Values joined by “and” are separate entries in the source; they are usually repeats but may differ in a detail not shown here. Equal values may be shown once.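 96-well plates; 48 h exposure; 5 concentrations. Endpoints by linear interpolation between flanking doses. Not reached: highest tested concentration assigned. GI50 = concentration required for 50% inhibition of growth. TGI is the concentration that stops growth completely.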

Assays:
Experiment in all cases: DTP human tumour cell line panel, 48 h; in the data active means GI50 below about 0.43 µM; inactive means the rest
786-0 renal = system: 786-0 renal
A498 renal = system: A498 renal
A549 NSCLC = system: A549 NSCLC
ACHN renal = system: ACHN renal
BT-549 breast = system: BT-549 breast
CAKI-1 renal = system: CAKI-1 renal
CCRF-CEM leukemia = system: CCRF-CEM leukemia
COLO 205 colon = system: COLO 205 colon
DU-145 prostate = system: DU-145 prostate
EKVX NSCLC = system: EKVX NSCLC
HCC-2998 colon = system: HCC-2998 colon
HCT-116 colon = system: HCT-116 colon
HCT-15 colon = system: HCT-15 colon
HL-60(TB) leukemia = system: HL-60(TB) leukemia
HOP-62 NSCLC = system: HOP-62 NSCLC
HOP-92 NSCLC = system: HOP-92 NSCLC
HS 578T breast = system: HS 578T breast
HT29 colon = system: HT29 colon
IGROV1 ovarian = system: IGROV1 ovarian
K-562 leukemia = system: K-562 leukemia
KM12 colon = system: KM12 colon
LOX IMVI melanoma = system: LOX IMVI melanoma
M14 melanoma = system: M14 melanoma
MALME-3M melanoma = system: MALME-3M melanoma
MCF7 breast = system: MCF7 breast
MDA-MB-231 breast = system: MDA-MB-231 breast
MDA-MB-435 = system: MDA-MB-435
MDA-N = system: MDA-N
MOLT-4 leukemia = system: MOLT-4 leukemia
NCI-H226 lung = system: NCI-H226 lung
NCI-H23 lung = system: NCI-H23 lung
NCI-H460 lung = system: NCI-H460 lung
NCI-H522 lung = system: NCI-H522 lung
NCI/ADR-RES ovarian = system: NCI/ADR-RES ovarian
OVCAR-3 ovarian = system: OVCAR-3 ovarian
OVCAR-4 ovarian = system: OVCAR-4 ovarian
OVCAR-5 ovarian = system: OVCAR-5 ovarian
OVCAR-8 ovarian = system: OVCAR-8 ovarian
PC-3 prostate = system: PC-3 prostate
RPMI-8226 leukemia = system: RPMI-8226 leukemia
RXF 393 renal = system: RXF 393 renal
SF-268 CNS = system: SF-268 CNS
SF-295 CNS = system: SF-295 CNS
SF-539 CNS = system: SF-539 CNS
SK-MEL-2 melanoma = system: SK-MEL-2 melanoma
SK-MEL-28 melanoma = system: SK-MEL-28 melanoma
SK-MEL-5 melanoma = system: SK-MEL-5 melanoma
SK-OV-3 ovarian = system: SK-OV-3 ovarian
SN12C renal = system: SN12C renal
SNB-19 CNS = system: SNB-19 CNS
SNB-75 CNS = system: SNB-75 CNS
SR leukemia = system: SR leukemia
SW-620 colon = system: SW-620 colon
T-47D breast = system: T-47D breast
TK-10 renal = system: TK-10 renal
U251 CNS = system: U251 CNS
UACC-257 melanoma = system: UACC-257 melanoma
UACC-62 melanoma = system: UACC-62 melanoma
UO-31 renal = system: UO-31 renal

O=C(Nc1cccc(Cl)c1)Nn1cnnc1
> 100 µM: TGI (786-0 renal) | TGI (A498 renal) | TGI (A549 NSCLC) | TGI (ACHN renal) | TGI (BT-549 breast) | TGI (CAKI-1 renal) | TGI (CCRF-CEM leukemia) | TGI (COLO 205 colon) | TGI (DU-145 prostate) | TGI (EKVX NSCLC) | TGI (HCC-2998 colon) | TGI (HCT-116 colon) | TGI (HCT-15 colon) | TGI (HL-60(TB) leukemia) | TGI (HOP-62 NSCLC) | TGI (HS 578T breast) | TGI (HT29 colon) | TGI (IGROV1 ovarian) | TGI (K-562 leukemia) | TGI (KM12 colon) | TGI (M14 melanoma) | TGI (MALME-3M melanoma) | TGI (MCF7 breast) | TGI (MDA-MB-231 breast) | TGI (MDA-MB-435) | TGI (MDA-N) | TGI (MOLT-4 leukemia) | TGI (NCI-H226 lung) | TGI (NCI-H23 lung) | TGI (NCI-H460 lung) | TGI (NCI-H522 lung) | TGI (NCI/ADR-RES ovarian) | TGI (OVCAR-3 ovarian) | TGI (OVCAR-4 ovarian) | TGI (OVCAR-8 ovarian) | TGI (PC-3 prostate) | TGI (RPMI-8226 leukemia) | TGI (RXF 393 renal) | TGI (SF-268 CNS) | TGI (SF-295 CNS) | TGI (SF-539 CNS) | TGI (SK-MEL-2 melanoma) | TGI (SK-MEL-28 melanoma) | TGI (SK-MEL-5 melanoma) | TGI (SK-OV-3 ovarian) | TGI (SN12C renal) | TGI (SNB-19 CNS) | TGI (SNB-75 CNS) | TGI (SR leukemia) | TGI (SW-620 colon) | TGI (T-47D breast) | TGI (TK-10 renal) | TGI (U251 CNS) | TGI (UACC-257 melanoma) | TGI (UACC-62 melanoma) | TGI (UO-31 renal)
> 50 µM and 22.5 µM: TGI (OVCAR-5 ovarian)
> 50 µM: TGI (LOX IMVI melanoma)
inactive: GI50 (786-0 renal) > 50 µM | GI50 (A498 renal) > 50 µM | GI50 (A549 NSCLC) > 50 µM | GI50 (ACHN renal) > 50 µM | GI50 (BT-549 breast) > 50 µM | GI50 (CAKI-1 renal) > 50 µM | GI50 (CCRF-CEM leukemia) > 50 µM | GI50 (COLO 205 colon) > 50 µM | GI50 (DU-145 prostate) > 50 µM | GI50 (HCC-2998 colon) > 50 µM | GI50 (HCT-116 colon) > 50 µM | GI50 (HCT-15 colon) > 50 µM | GI50 (HL-60(TB) leukemia) > 50 µM | GI50 (HOP-62 NSCLC) > 50 µM | GI50 (HOP-92 NSCLC) 12.7 µM | GI50 (HS 578T breast) > 50 µM | GI50 (HT29 colon) > 50 µM | GI50 (IGROV1 ovarian) > 50 µM | GI50 (K-562 leukemia) > 50 µM | GI50 (KM12 colon) > 50 µM | GI50 (LOX IMVI melanoma) > 50 µM | GI50 (M14 melanoma) > 50 µM | GI50 (MALME-3M melanoma) > 50 µM | GI50 (MCF7 breast) > 50 µM | GI50 (MDA-MB-231 breast) > 50 µM | GI50 (MDA-MB-435) > 50 µM | GI50 (MOLT-4 leukemia) > 50 µM | GI50 (NCI-H226 lung) > 50 µM | GI50 (NCI-H23 lung) > 50 µM | GI50 (NCI-H460 lung) > 50 µM | GI50 (NCI-H522 lung) > 50 µM | GI50 (NCI/ADR-RES ovarian) > 50 µM | GI50 (OVCAR-3 ovarian) > 50 µM | GI50 (OVCAR-4 ovarian) > 50 µM | GI50 (OVCAR-5 ovarian) > 50 µM | GI50 (OVCAR-8 ovarian) > 50 µM | GI50 (PC-3 prostate) > 50 µM | GI50 (RPMI-8226 leukemia) > 50 µM | GI50 (RXF 393 renal) > 50 µM | GI50 (SF-268 CNS) > 50 µM | GI50 (SF-295 CNS) > 50 µM | GI50 (SF-539 CNS) > 50 µM | GI50 (SK-MEL-2 melanoma) > 50 µM | GI50 (SK-MEL-28 melanoma) > 50 µM | GI50 (SK-MEL-5 melanoma) > 50 µM | GI50 (SK-OV-3 ovarian) > 50 µM | GI50 (SN12C renal) > 50 µM | GI50 (SNB-19 CNS) > 50 µM | GI50 (SNB-75 CNS) > 50 µM | GI50 (SW-620 colon) > 50 µM | GI50 (T-47D breast) > 50 µM | GI50 (TK-10 renal) > 50 µM | GI50 (U251 CNS) > 50 µM | GI50 (UACC-257 melanoma) > 50 µM | GI50 (UACC-62 melanoma) > 50 µM | GI50 (UO-31 renal) > 50 µM
50 µM and > 100 µM: TGI (HOP-92 NSCLC)
